Assay results: patent US12336981B2, “Compounds and compositions for the inhibition of NAMPT” (Valo Health, Inc., priority 2010, dated 2025)
pIC50: −log10 of the molar value. Read-outs that look alike come from different tables or passages of the source.

Experiments:
NAMPT = target: T1, NAMPT (Homo sapiens, UniProt P43490); assay: Biochemical inhibition assay: NAMPT enzymatic reaction, NMN quantified by mass spectrometry; conditions: read-out: Biochem IC50
T1 construct: His tag; host or cells: E. coli
Procedure, shortened: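 Inhibition of E. coli-expressed His-tagged human NAMPT, measured as NMN formation by mass spectrometry after a 30 min room-temperature reaction containing 1 μM NAM, 100 μM PRPP and 2.5 mM ATP.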

A2780 cells = assay: In-vitro cell proliferation assay (SRB), A2780 cells; type: cell-based; conditions: Homo sapiens, A2780, 72 h, A2780 cells, 72 hours, read-out: A2780 IC50
Procedure, shortened: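 Read-out is SRB absorbance at 570 nm on TCA-fixed cells after 72 hours of compound treatment at 37° C. in 5% CO2. Background from a media-only plate is subtracted, and % inhibition is interpolated between two tested concentrations.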

T1 sequence (P43490 whole entry): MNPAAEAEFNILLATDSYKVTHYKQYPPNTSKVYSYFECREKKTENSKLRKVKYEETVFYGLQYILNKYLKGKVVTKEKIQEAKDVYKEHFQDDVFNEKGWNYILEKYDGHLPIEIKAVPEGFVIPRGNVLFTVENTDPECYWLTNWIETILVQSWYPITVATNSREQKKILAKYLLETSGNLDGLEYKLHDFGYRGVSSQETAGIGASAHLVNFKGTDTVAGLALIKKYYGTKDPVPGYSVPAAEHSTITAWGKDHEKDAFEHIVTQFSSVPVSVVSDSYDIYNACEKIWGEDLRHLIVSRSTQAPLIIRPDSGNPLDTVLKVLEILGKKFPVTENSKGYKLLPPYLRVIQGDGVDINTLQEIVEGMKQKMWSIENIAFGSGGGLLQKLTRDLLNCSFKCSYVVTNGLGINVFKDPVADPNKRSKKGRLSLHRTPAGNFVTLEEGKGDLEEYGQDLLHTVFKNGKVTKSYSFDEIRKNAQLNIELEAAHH

Compound	pIC50 (NAMPT; NAMPT enzymatic reaction)	pIC50 (A2780 cells; SRB assay)	pIC50 (NAMPT; NAMPT enzymatic assay)	pIC50 (A2780 cells; SRB)
O=C(NCc1ccc(S(=O)(=O)c2ccc(C(F)(F)F)cc2)cc1)c1cc2cnccc2[nH]1 [N-[(4-{[4-(trifluoromethyl)benzene]sulfonyl}phenyl)methyl]-1H-pyrrolo[3,2-c]pyridine-2-carboxamide]	7.62	7.59		
O=C(NCc1ccc(S(=O)(=O)Nc2ccc(Cl)cc2OC(F)(F)F)cc1)c1cc2cnccc2[nH]1 [N-[(4-{[4-chloro-2-(trifluoromethoxy)phenyl]sulfamoyl}phenyl)methyl]-1H-pyrrolo[3,2-c]pyridine-2-carboxamide]	8.70	8.70		
O=C(NCc1ccc(S(=O)(=O)c2ccc(Cl)cc2C(F)(F)F)cc1)c1cnc2[nH]ncc2c1 [N-[(4-{[4-chloro-2-(trifluoromethyl)benzene]sulfonyl}phenyl)methyl]-1H-pyrazolo[3,4-b]pyridine-5-carboxamide]			6.83	7.11
O=C(NCc1ccc(S(=O)(=O)c2ccc(Cl)c(C(F)(F)F)c2)cc1)c1cc2cnccc2[nH]1 [N-[(4-{[4-chloro-3-(trifluoromethyl)benzene]sulfonyl}phenyl)methyl]-1H-pyrrolo[3,2-c]pyridine-2-carboxamide]	8.10	8.30		
O=C(NCc1ccc(S(=O)(=O)c2ccc(Cl)c(C(F)(F)F)c2)cc1)c1ccc2nccn2c1 [N-[(4-{[4-chloro-3-(trifluoromethyl)benzene]sulfonyl}phenyl)methyl]imidazo[1,2-a]pyridine-6-carboxamide]			8.01	8.45
O=C(NCc1ccc(S(=O)(=O)c2ccc(Cl)c(C(F)(F)F)c2)cc1)c1cc2ccncc2s1 [N-[(4-{[4-chloro-3-(trifluoromethyl)benzene]sulfonyl}phenyl)methyl]thieno[2,3-c]pyridine-2-carboxamide]	8.00	8.47		
CC(C)Oc1cc(F)ccc1S(=O)(=O)c1ccc(CNC(=O)c2cnc3nccn3c2)cc1 [N-[(4-{[4-fluoro-2-(propan-2-yloxy)benzene]sulfonyl}phenyl)methyl]imidazo[1,2-a]pyrimidine-6-carboxamide]			8.46	7.82
O=C(NCc1ccc(S(=O)(=O)c2ccc(F)cc2C(F)(F)F)cc1)c1cnc2[nH]ncc2c1 [N-[(4-{[4-fluoro-2-(trifluoromethyl)benzene]sulfonyl}phenyl)methyl]-1H-pyrazolo[3,4-b]pyridine-5-carboxamide]			6.95	6.96
O=C(NCc1ccc(S(=O)(=O)c2ccc(F)c(C(F)(F)F)c2)cc1)c1cnc2[nH]ncc2c1 [N-[(4-{[4-fluoro-3-(trifluoromethyl)benzene]sulfonyl}phenyl)methyl]-1H-pyrazolo[3,4-b]pyridine-5-carboxamide]			7.40	7.86
COc1ccc(S(=O)(=O)c2ccc(CNC(=O)c3cnc4[nH]ncc4c3)cc2)c(C(F)(F)F)c1 [N-[(4-{[4-methoxy-2-(trifluoromethyl)benzene]sulfonyl}phenyl)methyl]-1H-pyrazolo[3,4-b]pyridine-5-carboxamide]			7.06	7.20
CC(C)Oc1ccc(Cl)cc1S(=O)(=O)c1ccc(CNC(=O)c2cnc3[nH]ncc3c2)cc1 [N-[(4-{[5-chloro-2-(propan-2-yloxy)benzene]sulfonyl}phenyl)methyl]-1H-pyrazolo[3,4-b]pyridine-5-carboxamide]			7.17	7.57
CC(C)Oc1ccc(Cl)cc1S(=O)(=O)c1ccc(CNC(=O)c2cnc3nccn3c2)cc1 [N-[(4-{[5-chloro-2-(propan-2-yloxy)benzene]sulfonyl}phenyl)methyl]imidazo[1,2-a]pyrimidine-6-carboxamide]			8.33	7.84
O=C(NCc1ccc(S(=O)(=O)c2cc(F)ccc2CO)cc1)c1cnc2[nH]ncc2c1 [N-[(4-{[5-fluoro-2-(hydroxymethyl)benzene]sulfonyl}phenyl)methyl]-1H-pyrazolo[3,4-b]pyridine-5-carboxamide]			6.96	6.00 to 7.00
O=C(NCc1ccc(S(=O)(=O)c2cc(F)ccc2CO)cc1)c1cc2ccncc2o1 [N-[(4-{[5-fluoro-2-(hydroxymethyl)benzene]sulfonyl}phenyl)methyl]furo[2,3-c]pyridine-2-carboxamide]			7.64	7.17
CC(NC(=O)c1cc2cnccc2[nH]1)c1ccc(S(=O)(=O)N2CCCCC2)cc1 (stereo not shown) [N-{1-[4-(piperidine-1-sulfonyl)phenyl]ethyl}-1H-pyrrolo[3,2-c]pyridine-2-carboxamide]	7.70	8.15		
O=C(NCCc1ccc(S(=O)(=O)c2ccccc2)cc1)c1cc2cnccc2[nH]1 [N-{2-[4-(benzenesulfonyl)phenyl]ethyl}-1H-pyrrolo[3,2-c]pyridine-2-carboxamide]	6.39	5.04		
O=C(NCC1CCN(S(=O)(=O)c2ccccc2)CC1)c1cc2cnccc2[nH]1 [N-{[1-(benzenesulfonyl)piperidin-4-yl]methyl}-1H-pyrrolo[3,2-c]pyridine-2-carboxamide]	7.82	8.05		
O=C(NCc1cccc(S(=O)(=O)c2ccccc2)c1)c1cc2cnccc2[nH]1 [N-{[3-(benzenesulfonyl)phenyl]methyl}-1H-pyrrolo[3,2-c]pyridine-2-carboxamide]	< 4.52	< 4.52		

Compound	pIC50 (NAMPT; NAMPT enzymatic reaction)	pIC50 (A2780 cells; SRB assay)	pIC50 (NAMPT; NAMPT enzymatic assay)	pIC50 (A2780 cells; SRB)
O=C(NCc1ccc(S(=O)(=O)c2nccs2)cc1)c1cc2ccncc2o1 [N-{[4-(1,3-thiazole-2-sulfonyl)phenyl]methyl}furo[2,3-c]pyridine-2-carboxamide]			7.70	7.10
O=C(NCc1ccc(S(=O)(=O)c2nccs2)cc1)c1ccc2nccn2c1 [N-{[4-(1,3-thiazole-2-sulfonyl)phenyl]methyl}imidazo[1,2-a]pyridine-6-carboxamide]			7.68	7.00
O=C(NCc1ccc(S(=O)(=O)c2nccs2)cc1)c1cc2ccncc2s1 [N-{[4-(1,3-thiazole-2-sulfonyl)phenyl]methyl}thieno[2,3-c]pyridine-2-carboxamide]			7.84	7.12
Cc1cn(C)c(S(=O)(=O)c2ccc(CNC(=O)c3cc4ccncc4o3)cc2)n1 [N-{[4-(1,4-dimethyl-1H-imidazole-2-sulfonyl)phenyl]methyl}furo[2,3-c]pyridine-2-carboxamide]			7.22	6.00 to 7.00
Cc1cn(C)c(S(=O)(=O)c2ccc(CNC(=O)c3ccc4nccn4c3)cc2)n1 [N-{[4-(1,4-dimethyl-1H-imidazole-2-sulfonyl)phenyl]methyl}imidazo[1,2-a]pyridine-6-carboxamide]			6.00 to 7.00	7.02
Cc1cnc(S(=O)(=O)c2ccc(CNC(=O)c3cc4ccncc4o3)cc2)n1C [N-{[4-(1,5-dimethyl-1H-imidazole-2-sulfonyl)phenyl]methyl}furo[2,3-c]pyridine-2-carboxamide]			7.24	7.18
Cc1cnc(S(=O)(=O)c2ccc(CNC(=O)c3ccc4nccn4c3)cc2)n1C [N-{[4-(1,5-dimethyl-1H-imidazole-2-sulfonyl)phenyl]methyl}imidazo[1,2-a]pyridine-6-carboxamide]			7.51	7.14
Cc1cnc(S(=O)(=O)c2ccc(CNC(=O)c3cnc4nccn4c3)cc2)n1C [N-{[4-(1,5-dimethyl-1H-imidazole-2-sulfonyl)phenyl]methyl}imidazo[1,2-a]pyrimidine-6-carboxamide]			7.48	5.00 to 6.00
O=C(NCc1ccc(S(=O)(=O)c2cccc3ccsc23)cc1)c1cnc2[nH]ncc2c1 [N-{[4-(1-benzothiophene-7-sulfonyl)phenyl]methyl}-1H-pyrazolo[3,4-b]pyridine-5-carboxamide]			8.00	7.89
O=C(NCc1ccc(S(=O)(=O)c2cccc3ccsc23)cc1)c1cc2ccncc2o1 [N-{[4-(1-benzothiophene-7-sulfonyl)phenyl]methyl}furo[2,3-c]pyridine-2-carboxamide]			8.31	7.86
O=C(NCc1ccc(S(=O)(=O)c2cccc3ccsc23)cc1)c1cc2ccncc2s1 [N-{[4-(1-benzothiophene-7-sulfonyl)phenyl]methyl}thieno[2,3-c]pyridine-2-carboxamide]			8.82	8.82
Cn1cnc2ccc(S(=O)(=O)c3ccc(CNC(=O)c4cnc5nccn5c4)cc3)cc21 [N-{[4-(1-methyl-1H-1,3-benzodiazole-6-sulfonyl)phenyl]methyl}imidazo[1,2-a]pyrimidine-6-carboxamide]			8.40	7.47
Cn1ncc2c(S(=O)(=O)c3ccc(CNC(=O)c4ccc5ncsc5c4)cc3)cccc21 [N-{[4-(1-methyl-1H-indazole-4-sulfonyl)phenyl]methyl}-1,3-benzothiazole-6-carboxamide]			8.01	5.00 to 6.00
Cn1ncc2c(S(=O)(=O)c3ccc(CNC(=O)c4cnc5[nH]ncc5c4)cc3)cccc21 [N-{[4-(1-methyl-1H-indazole-4-sulfonyl)phenyl]methyl}-1H-pyrazolo[3,4-b]pyridine-5-carboxamide]			7.69	8.19
Cn1ncc2c(S(=O)(=O)c3ccc(CNC(=O)c4cc5cnccc5[nH]4)cc3)cccc21 [N-{[4-(1-methyl-1H-indazole-4-sulfonyl)phenyl]methyl}-1H-pyrrolo[3,2-c]pyridine-2-carboxamide]			8.51	8.82
Cn1ncc2c(S(=O)(=O)c3ccc(CNC(=O)c4cc5ccncc5o4)cc3)cccc21 [N-{[4-(1-methyl-1H-indazole-4-sulfonyl)phenyl]methyl}furo[2,3-c]pyridine-2-carboxamide]			8.04	8.44
Cn1ncc2c(S(=O)(=O)c3ccc(CNC(=O)c4ccc5nccn5c4)cc3)cccc21 [N-{[4-(1-methyl-1H-indazole-4-sulfonyl)phenyl]methyl}imidazo[1,2-a]pyridine-6-carboxamide]			7.90	8.52
